Measured values as given in patent publication US12139458B2, “(2,5-dioxopyrrolidin-1-yl)(phenyl)-acetamide derivatives and their use in the treatment of neurological diseases” (UNIWERSYTET JAGIELLONSKI, priority 2019, dated 2024).
Where two headings read alike, the source gives them in different places.

Legend:
[1] = biological target: TRPV1 receptor (VR1) (h) (Homo sapiens, UniProt Q8NER1); test: TRPV1 receptor functional study (antagonist effect); type: cell-based; conditions: human recombinant cells (CHO), read-out: % Inhibition of agonist control responses, TRPV1 receptor (antagonist effect)
Sequence of TRPV1 receptor (VR1) (h) (Q8NER1 whole entry): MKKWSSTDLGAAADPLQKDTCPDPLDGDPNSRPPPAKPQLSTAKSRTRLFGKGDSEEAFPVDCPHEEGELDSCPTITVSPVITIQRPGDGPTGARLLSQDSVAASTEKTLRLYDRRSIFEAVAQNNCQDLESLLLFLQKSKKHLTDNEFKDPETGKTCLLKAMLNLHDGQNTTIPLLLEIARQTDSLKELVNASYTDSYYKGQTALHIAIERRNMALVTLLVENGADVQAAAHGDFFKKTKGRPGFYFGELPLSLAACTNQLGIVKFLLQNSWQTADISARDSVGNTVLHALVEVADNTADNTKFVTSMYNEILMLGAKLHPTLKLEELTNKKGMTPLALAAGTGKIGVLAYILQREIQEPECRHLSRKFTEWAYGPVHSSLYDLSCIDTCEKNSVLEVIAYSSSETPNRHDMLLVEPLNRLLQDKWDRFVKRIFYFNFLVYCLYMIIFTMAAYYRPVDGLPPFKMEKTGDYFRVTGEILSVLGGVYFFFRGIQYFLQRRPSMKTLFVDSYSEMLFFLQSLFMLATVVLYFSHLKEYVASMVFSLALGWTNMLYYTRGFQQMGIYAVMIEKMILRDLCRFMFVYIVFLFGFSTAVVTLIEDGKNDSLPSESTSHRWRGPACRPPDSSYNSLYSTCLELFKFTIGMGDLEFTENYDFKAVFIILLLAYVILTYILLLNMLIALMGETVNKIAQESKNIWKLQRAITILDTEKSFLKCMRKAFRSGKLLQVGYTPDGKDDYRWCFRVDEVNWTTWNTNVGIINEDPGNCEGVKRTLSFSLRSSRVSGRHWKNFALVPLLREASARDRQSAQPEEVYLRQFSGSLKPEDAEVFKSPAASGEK
Excerpt: (§1) A unique feature of the compound 6 representing compounds of formula (II) according to the invention is the inhibition of calcium currents by blocking the transient receptor potential vanilloid type 1 (TRPV1). This effect has not been disclosed for known AEDs. TRPV1 receptor antagonism may determine the antinociceptive effect of the compounds disclosed herein. The role of the TRPV1 receptor in conduction of pain stimuli has been well documented in specialist literature (Szallasi, A.; Cortright, D. N.; Blum, C. A.; Eid, S. R. Nat. Rev. Drug. Discov. 2007, 6, 357-372). The compounds according to the invention are characterized by a complex mechanism of action, which is not described for known anticonvulsants. It should be emphasized, however, that further in vitro studies may reveal further molecular targets responsible for the pharmacological action of substances being the subject of current patent claim. The results of binding studies (sodium channel, calcium channel) and functional tests (TRPV1 receptor) for compound 6 are shown in Table 3.

[2] = system: Ca2+ channel type L (dihydropyridine binding site); test: Ca2+ channel type L (dihydropyridine binding site) affinity study; conditions: rat cerebral cortex
Excerpt: as §1

[3] = system: HepG2 cells; test: ATP level, CellTiter-Glo Luminescent Cell Viability Assay; type: cell-based; conditions: 1-100 μM, 3 h exposure
Experimental: In vitro hepatotoxicity assessment. The studies were conducted using the hepatoma HepG2 liver cancer cell line, which is used to assess the hepatotoxicity of the substance in vitro. A classic MTS colorimetric assay from Promega (Madison, WI, USA) was used to investigate the effect of 6 on HepG2 cell viability and proliferation. The compound was tested at four concentrations in the range (0.1-100 μM). Doxorubicin at a concentration of 1 μM was used as a reference cytostatic. In addition, the reference mitochondrial toxin carbonyl cyanide m-chlorophenylhydrazone (CCCP) at a concentration of 10 μM was also used (FIG. 10). […] In addition, cell viability was reduced to just 84% of the control, indicating a trace toxic effect of this compound on HepG2 cell lines. […]
CellTiter-Glo Luminescent Cell Viability Assay from Promega (Madison, WI, USA) was used to study ATP levels in HepG2 cells. Prior to testing, the cells were plated into white, 96-well transparent bottom culture plates from Corning (Tewksbury, MA, USA), adapted for luminescence measurement at a concentration of 1.5×10^4 cells per well. […] Luminescence measurement was carried out with an EnSpire PerkinElmer (Waltham, MA, USA) reader after adding CellTiter-Glo Luminescent Cell Viability Assay in an amount of 100 μl to the culture. Statistical significance was calculated by one-way ANOVA and Bonferroni analysis using GraphPad Prism 5. […]

[4] = system: male white Swiss mice (CD-1); test: Formalin test (analgesic activity); type: in vivo; conditions: Mus musculus, ip, i.p., mice
Experimental: The tests were carried out using male white Swiss mice (CD-1) weighing 18-25 g. All procedures were carried out in accordance with Polish and international guidelines on ethics of animal testing, after obtaining appropriate institutional approval. The study group consisted of 8-10 animals. The tested and reference substances were administered intraperitoneally 30 minutes before given test as suspension in 1% aqueous solution of Tween. All tests/models were carried out based on the procedures described in the specialist literature: the formalin test (Beirith, A.; Santos, A. R.; Calixto, J. B.; Rodrigues, A. L.; Creczynski-Pasa, T. B. Eur. J. Pharmacol. 1998, 345, 233-245), the model of capsaicin-induced pain (Mogilski, S.; Kubacka, M.; Redzicka, A.; Kazek, G.; Dudek, M.; Malinka, W.; Filipek, B. Pharmacol. Biochem. Behav. 2015, 133, 99-110), the model of oxaliplatin-induced neuropathic pain—von Frey test (Sałat, K.; Cios, A.; Wyska, E.; Satat, R.; Mogilski, S.; Filipek, B.; Wigȩkowski, K.; Malawska, B. Pharmacol. Biochem. Behav. 2014, 122, 173-181).
The pain was induced by the subplantar injection of 20 μL of 2.5% formalin solution into the mice right hind paw. The animals were placed in separate, transparent observation chambers for a period of 30 minutes. The measured value was the total licking and biting time of the paw to which the formalin solution was injected. The nociceptive reaction time was calculated for the first 5 minutes after formalin injection (first phase of the test—acute pain) and in the 15-20, 20-25 and 25-30 minutes time intervals after its administration (second phase of the test—inflammatory pain). The observed inhibition of nociceptive reaction—reduction of paw licking and biting time, was interpreted as the analgesic effect of the compound tested. Based on the results obtained, the ED50 dose was calculated (dose that reduces the nociceptive reaction time by 50%). […] Compound 6 was administered at doses of 10 mg/kg, 20 mg/kg and 30 mg/kg.

O=C(C(c1ccccc1)N1C(=O)CCC1=O)N1CCN(c2cccc(C(F)(F)F)c2)CC1 (racemic) [Compound 6, 1-(2-Oxo-1-phenyl-2-(4-(3-(trifluoromethyl)phenyl)piperazin-1-yl)ethyl)pyrrolidine-2,5-dione]
inhibition at 100 µM [1]: 71.7% | Inhibition of specific control binding, Ca2+ channel type L (dihydropyridine binding site) ([2]; 10 μM): 30.8 (10) % | Inhibition of specific control binding, Ca2+ channel type L (dihydropyridine binding site) ([2]; 100 μM): 82.3 (100) % | effect on ATP levels in HepG2 cells [3]: no statistically significant effect | ED50 ([4]; phase I (acute pain, 0-5 min), read-out: ED50 in the first phase of the formalin test): 28.5 mg/kg | ED50 ([4]; phase II (inflammatory pain, 15-30 min), read-out: ED50 in the second phase of the formalin test): 12.4 mg/kg
